Results as given in the supplement of paper PMC12463676, “Small-molecule dissolution of stress granules by redox modulation benefits ALS models” (Nature Chemical Biology, 2025).

Experiments:
lipoamide = compound: NC(=O)CCCCC1CCSS1 [lipoamide]; experiment: thermal stability z-score vs DMSO; higher = more thermally stabilized by treatment; conditions: HeLa, lipoamide concentration 100 µM
Description: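 Cellular thermal proteome profiling in HeLa cells. Cells were treated with 100 µM lipoamide for 1 h, with or without 1 mM arsenate for a further 1 h, then heated to ten temperatures (37-66.3 °C), and soluble protein was quantified by TMT mass spectrometry relative to 0.1% DMSO controls. The thermal stability score (sum of log2 fold changes minus the abundance score) was transformed to a z-score; mean of n = 3 experiments.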

potassium arsenate = compound: O=[As]([O-])(O)O.[K+] [potassium arsenate]; experiment: as above; conditions: HeLa; arsenate concentration 1 mM
Description: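 Cellular thermal proteome profiling in HeLa cells treated with 1 mM arsenate for 1 h (DMSO pretreatment), heated to ten temperatures (37-66.3 °C). Soluble protein was quantified by TMT mass spectrometry relative to DMSO controls; the thermal stability score was transformed to a z-score; mean of n = 3 experiments.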

[1] = arsenate co-treatment: 1 mM arsenate 1 h
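Also: each temperature applied for 3 min, abundance score taken as mean log2 fold change at the two lowest temperatures, z-score obtained by mean subtraction and division by SD.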

Chain of UniProt O15182 (O15182 whole entry): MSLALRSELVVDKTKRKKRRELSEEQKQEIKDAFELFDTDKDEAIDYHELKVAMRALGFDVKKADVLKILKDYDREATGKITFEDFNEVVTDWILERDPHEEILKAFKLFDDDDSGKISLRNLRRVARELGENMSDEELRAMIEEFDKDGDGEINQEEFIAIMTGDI
Chain of UniProt O60566 (O60566 whole entry): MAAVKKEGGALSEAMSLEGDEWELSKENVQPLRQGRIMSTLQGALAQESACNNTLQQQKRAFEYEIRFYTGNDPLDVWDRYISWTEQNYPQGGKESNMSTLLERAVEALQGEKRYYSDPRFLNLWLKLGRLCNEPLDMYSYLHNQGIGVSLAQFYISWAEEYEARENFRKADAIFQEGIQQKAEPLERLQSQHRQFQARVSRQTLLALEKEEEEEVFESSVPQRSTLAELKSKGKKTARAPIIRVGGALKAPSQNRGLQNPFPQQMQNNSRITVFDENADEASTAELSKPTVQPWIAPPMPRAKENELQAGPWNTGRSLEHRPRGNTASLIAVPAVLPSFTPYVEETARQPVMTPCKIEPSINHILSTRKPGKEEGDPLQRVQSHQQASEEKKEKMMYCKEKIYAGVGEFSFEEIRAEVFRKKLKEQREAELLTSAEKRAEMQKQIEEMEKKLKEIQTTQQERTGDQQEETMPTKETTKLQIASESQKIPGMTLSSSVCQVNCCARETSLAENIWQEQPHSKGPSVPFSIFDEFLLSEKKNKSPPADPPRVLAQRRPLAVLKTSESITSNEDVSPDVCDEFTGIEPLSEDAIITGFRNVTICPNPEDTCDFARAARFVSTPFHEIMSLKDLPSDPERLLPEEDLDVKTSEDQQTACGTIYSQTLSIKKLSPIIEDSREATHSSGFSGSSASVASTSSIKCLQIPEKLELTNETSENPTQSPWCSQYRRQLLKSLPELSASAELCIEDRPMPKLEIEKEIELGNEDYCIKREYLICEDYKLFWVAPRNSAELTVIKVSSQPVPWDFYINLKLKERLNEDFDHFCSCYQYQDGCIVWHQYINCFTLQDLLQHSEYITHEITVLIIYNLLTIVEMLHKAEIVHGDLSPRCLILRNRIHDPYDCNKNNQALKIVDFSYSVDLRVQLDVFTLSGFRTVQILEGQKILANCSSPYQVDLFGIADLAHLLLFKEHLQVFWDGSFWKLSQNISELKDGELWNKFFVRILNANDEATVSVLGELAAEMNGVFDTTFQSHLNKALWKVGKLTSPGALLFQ
Chain of UniProt Q04760 (Q04760 whole entry, looked up): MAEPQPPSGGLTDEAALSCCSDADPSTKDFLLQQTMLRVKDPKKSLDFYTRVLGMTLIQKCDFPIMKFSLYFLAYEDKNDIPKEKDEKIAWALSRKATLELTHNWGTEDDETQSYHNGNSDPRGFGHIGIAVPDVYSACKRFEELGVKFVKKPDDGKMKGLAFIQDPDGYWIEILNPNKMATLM
Chain of UniProt Q8NF37 (Q8NF37 whole entry): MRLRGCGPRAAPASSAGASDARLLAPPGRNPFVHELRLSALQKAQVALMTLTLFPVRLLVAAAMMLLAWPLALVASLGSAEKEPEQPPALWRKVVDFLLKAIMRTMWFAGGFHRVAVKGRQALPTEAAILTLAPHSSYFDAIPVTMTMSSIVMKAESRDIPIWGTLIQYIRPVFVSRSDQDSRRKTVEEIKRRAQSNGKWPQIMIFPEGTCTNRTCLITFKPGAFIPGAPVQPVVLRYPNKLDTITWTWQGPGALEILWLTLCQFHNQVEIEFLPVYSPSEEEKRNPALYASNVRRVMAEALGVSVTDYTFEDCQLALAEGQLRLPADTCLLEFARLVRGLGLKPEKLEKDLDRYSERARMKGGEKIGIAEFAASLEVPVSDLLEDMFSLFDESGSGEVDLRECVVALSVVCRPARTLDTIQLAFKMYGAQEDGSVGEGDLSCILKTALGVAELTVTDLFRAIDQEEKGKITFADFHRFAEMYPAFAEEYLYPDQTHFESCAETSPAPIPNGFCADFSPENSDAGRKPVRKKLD
Chain of UniProt Q8N8R7 (Q8N8R7 whole entry): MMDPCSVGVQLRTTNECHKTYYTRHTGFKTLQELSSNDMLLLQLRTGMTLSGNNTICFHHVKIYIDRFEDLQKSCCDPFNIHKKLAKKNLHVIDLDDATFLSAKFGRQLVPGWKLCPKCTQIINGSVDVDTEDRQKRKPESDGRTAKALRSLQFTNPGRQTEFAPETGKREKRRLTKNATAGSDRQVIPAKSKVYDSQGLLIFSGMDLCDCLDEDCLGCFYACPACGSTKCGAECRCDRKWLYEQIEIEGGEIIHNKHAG
Chain of UniProt Q9UJW0 (Q9UJW0 whole entry): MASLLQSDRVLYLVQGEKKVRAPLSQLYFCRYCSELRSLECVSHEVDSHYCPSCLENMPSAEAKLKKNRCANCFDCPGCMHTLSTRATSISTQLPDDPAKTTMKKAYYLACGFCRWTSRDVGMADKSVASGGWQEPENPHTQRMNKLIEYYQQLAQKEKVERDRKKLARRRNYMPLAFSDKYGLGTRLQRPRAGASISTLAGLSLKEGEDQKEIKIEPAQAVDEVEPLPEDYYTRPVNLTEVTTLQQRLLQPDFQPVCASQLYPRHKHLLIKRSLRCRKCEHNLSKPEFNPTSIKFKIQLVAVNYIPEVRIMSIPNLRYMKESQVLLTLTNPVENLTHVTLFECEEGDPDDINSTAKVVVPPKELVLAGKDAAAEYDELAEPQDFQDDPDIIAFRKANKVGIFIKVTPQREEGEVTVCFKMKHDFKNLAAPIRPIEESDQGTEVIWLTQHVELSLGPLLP
Chain of UniProt Q9Y3X0 (Q9Y3X0 whole entry): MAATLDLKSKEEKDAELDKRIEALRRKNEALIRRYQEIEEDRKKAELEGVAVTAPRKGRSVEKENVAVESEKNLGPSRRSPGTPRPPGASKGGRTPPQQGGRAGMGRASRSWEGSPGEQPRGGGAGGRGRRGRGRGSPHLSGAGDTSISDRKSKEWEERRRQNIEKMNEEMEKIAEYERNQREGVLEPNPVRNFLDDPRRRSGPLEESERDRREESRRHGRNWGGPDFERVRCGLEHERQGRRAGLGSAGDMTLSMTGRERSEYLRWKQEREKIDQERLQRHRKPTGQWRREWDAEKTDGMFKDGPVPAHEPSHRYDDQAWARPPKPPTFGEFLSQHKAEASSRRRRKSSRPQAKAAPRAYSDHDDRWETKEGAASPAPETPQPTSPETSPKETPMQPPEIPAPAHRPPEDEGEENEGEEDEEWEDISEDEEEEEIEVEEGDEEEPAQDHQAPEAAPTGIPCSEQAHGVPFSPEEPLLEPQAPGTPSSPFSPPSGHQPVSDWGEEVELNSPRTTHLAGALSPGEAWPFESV
Chain of UniProt Q9UJA5 (Q9UJA5 whole entry): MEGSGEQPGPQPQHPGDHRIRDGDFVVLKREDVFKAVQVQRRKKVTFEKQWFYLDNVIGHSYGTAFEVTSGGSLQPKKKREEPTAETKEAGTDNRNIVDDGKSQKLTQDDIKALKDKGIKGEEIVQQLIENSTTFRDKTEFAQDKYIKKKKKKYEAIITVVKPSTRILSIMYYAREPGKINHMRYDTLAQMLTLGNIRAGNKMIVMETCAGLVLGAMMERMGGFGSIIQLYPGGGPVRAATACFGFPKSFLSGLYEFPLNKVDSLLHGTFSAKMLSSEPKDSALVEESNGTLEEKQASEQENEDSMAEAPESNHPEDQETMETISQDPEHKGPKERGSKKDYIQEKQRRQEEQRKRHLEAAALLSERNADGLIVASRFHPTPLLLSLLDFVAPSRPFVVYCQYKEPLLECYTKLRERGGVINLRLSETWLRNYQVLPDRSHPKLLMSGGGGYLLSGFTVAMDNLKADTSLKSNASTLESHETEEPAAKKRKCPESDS
Chain of UniProt Q9NWX5 (Q9NWX5 whole entry): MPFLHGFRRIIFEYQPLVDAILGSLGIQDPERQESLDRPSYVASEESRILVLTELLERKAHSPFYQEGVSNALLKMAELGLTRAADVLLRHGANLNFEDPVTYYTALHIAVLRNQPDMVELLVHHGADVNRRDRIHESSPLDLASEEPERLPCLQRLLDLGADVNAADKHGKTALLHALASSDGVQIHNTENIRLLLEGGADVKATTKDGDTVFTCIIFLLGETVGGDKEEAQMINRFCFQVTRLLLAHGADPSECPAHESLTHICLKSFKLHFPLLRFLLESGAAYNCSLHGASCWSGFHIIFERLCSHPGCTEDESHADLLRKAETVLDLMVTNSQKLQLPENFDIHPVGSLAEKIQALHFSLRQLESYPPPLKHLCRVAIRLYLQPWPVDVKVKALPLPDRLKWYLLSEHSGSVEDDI
Chain of UniProt P47224 (P47224 whole entry): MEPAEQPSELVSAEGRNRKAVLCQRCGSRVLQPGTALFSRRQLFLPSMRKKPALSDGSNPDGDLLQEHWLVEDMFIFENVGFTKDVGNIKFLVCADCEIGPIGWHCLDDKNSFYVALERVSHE
Chain of UniProt P08240 (P08240 whole entry): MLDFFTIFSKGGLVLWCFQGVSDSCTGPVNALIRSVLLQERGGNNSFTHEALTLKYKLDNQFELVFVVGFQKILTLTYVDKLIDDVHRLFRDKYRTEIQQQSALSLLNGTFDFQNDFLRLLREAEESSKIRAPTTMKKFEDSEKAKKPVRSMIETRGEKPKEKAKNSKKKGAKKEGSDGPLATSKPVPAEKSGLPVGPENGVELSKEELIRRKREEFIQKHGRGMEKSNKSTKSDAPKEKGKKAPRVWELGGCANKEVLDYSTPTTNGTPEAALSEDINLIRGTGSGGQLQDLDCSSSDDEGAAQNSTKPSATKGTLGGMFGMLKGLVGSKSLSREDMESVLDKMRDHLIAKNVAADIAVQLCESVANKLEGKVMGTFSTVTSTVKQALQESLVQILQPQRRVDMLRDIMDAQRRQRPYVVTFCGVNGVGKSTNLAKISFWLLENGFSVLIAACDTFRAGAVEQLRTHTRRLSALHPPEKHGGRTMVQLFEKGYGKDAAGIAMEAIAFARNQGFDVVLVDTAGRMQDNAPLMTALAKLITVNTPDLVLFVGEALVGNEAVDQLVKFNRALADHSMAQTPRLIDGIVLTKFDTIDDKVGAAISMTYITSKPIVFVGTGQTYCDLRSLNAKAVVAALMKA

Target	thermal stability z-score (lipoamide; [1])	thermal stability z-score (lipoamide; arsenate co-treatment: none)	thermal stability z-score (potassium arsenate)
LPCAT1 (UniProt Q8NF37)	-0.369	-0.129	0.149
HOOK1 (UniProt Q9UJC3)	-1.15	-0.591	-0.199
GLTSCR2 (UniProt Q9NZM5)	0.409	-0.522	-2.53
NUP43 (UniProt Q8NFH3)	2.43	0.779	1.58
MFAP1 (UniProt P55081)	0.755	0.245	1.73
FADS1 (UniProt O60427)	0.469	0.181	0.226
DDX3X (UniProt O00571)	-0.829	-0.504	-2.07
RPS15 (UniProt P62841)	0.148	0.282	-0.957
PDE1A (UniProt P54750)	0.864	1.23	1.05
ASAP1 (UniProt Q9ULH1)	0.0666	-0.0222	-0.0654
ALG11 (UniProt Q2TAA5)	0.266	-0.15	0.806
MAP3K2 (UniProt Q9Y2U5)	0.15	-0.461	-0.71
SRPRA (UniProt P08240)	-0.176	-0.208	0.545
PLEKHF1 (UniProt Q96S99)	-0.218	-0.0271	-0.0692
SEMA3B (UniProt Q13214)	-1.02	-1.61	0.997
ASB6 (UniProt Q9NWX5)	0.441	-0.288	0.506
SKA2 (UniProt Q8WVK7)	-0.397	-0.0647	-0.271
CCDC9 (UniProt Q9Y3X0)	1.57	1.4	-0.162
GRHPR (UniProt Q9UBQ7)	-0.261	0.411	1.22
MAN2B1 (UniProt O00754)	-1.18	-0.63	-0.312
PIH1D1 (UniProt Q9NWS0)	1.07	0.114	0.538
ZNF703 (UniProt Q9H7S9)	0.173	0.148	0.019
TRMT2A (UniProt Q8IZ69)	-0.235	-0.172	-0.216
MAP4 (UniProt P27816)	0.0996	0.243	-0.384

Target	thermal stability z-score (lipoamide; [1])	thermal stability z-score (lipoamide; arsenate co-treatment: none)	thermal stability z-score (potassium arsenate)
CPNE1 (UniProt Q99829)	0.0896	0.0907	-0.934
AFAP1 (UniProt Q8N556)	0.411	-0.0977	-0.957
SORT1 (UniProt Q99523)	-0.0906	0.945	1.41
SLC7A5 (UniProt Q01650)	1.39	1.19	1.47
EIF3C (UniProt Q99613)	-0.304	0.183	0.498
NIPSNAP1 (UniProt Q9BPW8)	-1.48	-0.204	-0.872
RABIF (UniProt P47224)	0.243	0.233	-0.572
PSMD3 (UniProt O43242)	0.084	0.0492	0.115
EXOC4 (UniProt Q96A65)	-0.433	-0.0966	0.0526
C18ORF21 (UniProt Q32NC0)	-0.42	-0.189	-2.28
PSMB4 (UniProt P28070)	0.411	0.72	0.545
PGGT1B (UniProt P53609)	-0.242	0.0735	0.268
C1ORF123 (UniProt Q9NWV4)	-0.384	-0.409	-0.929
EIF3F (UniProt O00303)	-0.117	-0.0503	-0.156
PPIB (UniProt P23284)	-3.74	-2.72	0.559
GSK3A (UniProt P49840)	-0.401	-0.28	-0.881
ATP5A1 (UniProt P25705)	-0.144	-0.0322	-0.382
COPS8 (UniProt Q99627)	0.0678	-0.053	0.171
TPD52L2 (UniProt O43399)	1.01	1.19	0.621
TRMT6 (UniProt Q9UJA5)	0.481	0.683	0.0561
ARL14EP (UniProt Q8N8R7)	-0.0926	-0.15	-0.3
SBF1 (UniProt O95248)	-0.316	0.227	-0.338
MLLT1 (UniProt Q03111)	-0.182	-0.111	-0.0158
USO1 (UniProt O60763)	0.293	0.095	0.146

Target	thermal stability z-score (lipoamide; [1])	thermal stability z-score (lipoamide; arsenate co-treatment: none)	thermal stability z-score (potassium arsenate)
ATG3 (UniProt Q9NT62)	0.381	0.021	-0.627
DCTN4 (UniProt Q9UJW0)	-0.368	-0.0931	-0.11
SOGA1 (UniProt O94964)	0.0497	-0.0282	-0.097
ATP11C (UniProt Q8NB49)	-0.348	0.254	-1.13
CETN3 (UniProt O15182)	1.25	1.49	1.71
UniProt E9PSI1	-0.0572	-0.622	-0.346
MRPL46 (UniProt Q9H2W6)	-0.218	0.1	-0.0514
RNF123 (UniProt Q5XPI4)	-0.194	-0.0174	-0.445
CPA4 (UniProt Q9UI42)	-0.883	-0.642	0.188
BUB1B (UniProt O60566)	0.0397	0.232	0.247
DSTYK (UniProt Q6XUX3)	0.0406	-0.378	-0.117
GTF2H2|GTF2H2C	0.00796	-0.0811	-0.166
SKA1 (UniProt Q96BD8)	-0.047	0.0119	-0.0935
BYSL (UniProt Q13895)	-0.197	0.349	0.424
GLO1 (UniProt Q04760)	1.12	0.739	1.62
ARPC5L (UniProt Q9BPX5)	0.0991	-0.00985	-0.302
PALM (UniProt O75781)	-0.195	-0.143	-0.681
FRYL (UniProt O94915)	-0.0982	0.156	0.161
RIN1 (UniProt Q13671)	-0.105	-0.041	0.0874
TMEM115 (UniProt Q12893)	0.0848	0.637	-0.307
APPL2 (UniProt Q8NEU8)	0.0353	-0.132	-0.0173
UAP1 (UniProt Q16222)	0.373	0.0722	-0.553
MAT2A (UniProt P31153)	-0.418	-0.422	0.337
